Where no end group is shown, it is not given here.
B1: ovalbumin: control protein (protein, UniProt P01012 2-386, looked up)
Ovalbumin: GSIGAASMEFCFDVFKELKVHHANENIFYCPIAIMSALAMVYLGAKDSTRTQINKVVRFDKLPGFGDSIEAQCGTSVNVHSSLRDILNQITKPNDVYSFSLASRLYAEERYPILPEYLQCVKELYRGGLEPINFQTAADQARELINSWVESQTNGIIRNVLQPSSVDSQTAMVLVNAIVFKGLWEKAFKDEDTQAMPFRVTEQESKPVQMMYQIGLFRVASMASEKMKILELPFASGTMSMLVLLPDEVSGLEQLESIINFEKLTEWTSSNVMEERKIKVYLPRMKMEEKYNLTSVLMAMGITDVFSSSANLSGISSAESLKISQAVHAAHAEINEAGREVVGSAEAGVDAASVSEEFRADHPFLFCIKHIATNAVLFFGRCVSP

Columns and labels:
fibronectin [1] = biological target: T1, fibronectin (Homo sapiens, UniProt P02751); test: Inhibition of fibronectin binding to immobilized native type I collagen
T1 sequence (P02751 32-2477): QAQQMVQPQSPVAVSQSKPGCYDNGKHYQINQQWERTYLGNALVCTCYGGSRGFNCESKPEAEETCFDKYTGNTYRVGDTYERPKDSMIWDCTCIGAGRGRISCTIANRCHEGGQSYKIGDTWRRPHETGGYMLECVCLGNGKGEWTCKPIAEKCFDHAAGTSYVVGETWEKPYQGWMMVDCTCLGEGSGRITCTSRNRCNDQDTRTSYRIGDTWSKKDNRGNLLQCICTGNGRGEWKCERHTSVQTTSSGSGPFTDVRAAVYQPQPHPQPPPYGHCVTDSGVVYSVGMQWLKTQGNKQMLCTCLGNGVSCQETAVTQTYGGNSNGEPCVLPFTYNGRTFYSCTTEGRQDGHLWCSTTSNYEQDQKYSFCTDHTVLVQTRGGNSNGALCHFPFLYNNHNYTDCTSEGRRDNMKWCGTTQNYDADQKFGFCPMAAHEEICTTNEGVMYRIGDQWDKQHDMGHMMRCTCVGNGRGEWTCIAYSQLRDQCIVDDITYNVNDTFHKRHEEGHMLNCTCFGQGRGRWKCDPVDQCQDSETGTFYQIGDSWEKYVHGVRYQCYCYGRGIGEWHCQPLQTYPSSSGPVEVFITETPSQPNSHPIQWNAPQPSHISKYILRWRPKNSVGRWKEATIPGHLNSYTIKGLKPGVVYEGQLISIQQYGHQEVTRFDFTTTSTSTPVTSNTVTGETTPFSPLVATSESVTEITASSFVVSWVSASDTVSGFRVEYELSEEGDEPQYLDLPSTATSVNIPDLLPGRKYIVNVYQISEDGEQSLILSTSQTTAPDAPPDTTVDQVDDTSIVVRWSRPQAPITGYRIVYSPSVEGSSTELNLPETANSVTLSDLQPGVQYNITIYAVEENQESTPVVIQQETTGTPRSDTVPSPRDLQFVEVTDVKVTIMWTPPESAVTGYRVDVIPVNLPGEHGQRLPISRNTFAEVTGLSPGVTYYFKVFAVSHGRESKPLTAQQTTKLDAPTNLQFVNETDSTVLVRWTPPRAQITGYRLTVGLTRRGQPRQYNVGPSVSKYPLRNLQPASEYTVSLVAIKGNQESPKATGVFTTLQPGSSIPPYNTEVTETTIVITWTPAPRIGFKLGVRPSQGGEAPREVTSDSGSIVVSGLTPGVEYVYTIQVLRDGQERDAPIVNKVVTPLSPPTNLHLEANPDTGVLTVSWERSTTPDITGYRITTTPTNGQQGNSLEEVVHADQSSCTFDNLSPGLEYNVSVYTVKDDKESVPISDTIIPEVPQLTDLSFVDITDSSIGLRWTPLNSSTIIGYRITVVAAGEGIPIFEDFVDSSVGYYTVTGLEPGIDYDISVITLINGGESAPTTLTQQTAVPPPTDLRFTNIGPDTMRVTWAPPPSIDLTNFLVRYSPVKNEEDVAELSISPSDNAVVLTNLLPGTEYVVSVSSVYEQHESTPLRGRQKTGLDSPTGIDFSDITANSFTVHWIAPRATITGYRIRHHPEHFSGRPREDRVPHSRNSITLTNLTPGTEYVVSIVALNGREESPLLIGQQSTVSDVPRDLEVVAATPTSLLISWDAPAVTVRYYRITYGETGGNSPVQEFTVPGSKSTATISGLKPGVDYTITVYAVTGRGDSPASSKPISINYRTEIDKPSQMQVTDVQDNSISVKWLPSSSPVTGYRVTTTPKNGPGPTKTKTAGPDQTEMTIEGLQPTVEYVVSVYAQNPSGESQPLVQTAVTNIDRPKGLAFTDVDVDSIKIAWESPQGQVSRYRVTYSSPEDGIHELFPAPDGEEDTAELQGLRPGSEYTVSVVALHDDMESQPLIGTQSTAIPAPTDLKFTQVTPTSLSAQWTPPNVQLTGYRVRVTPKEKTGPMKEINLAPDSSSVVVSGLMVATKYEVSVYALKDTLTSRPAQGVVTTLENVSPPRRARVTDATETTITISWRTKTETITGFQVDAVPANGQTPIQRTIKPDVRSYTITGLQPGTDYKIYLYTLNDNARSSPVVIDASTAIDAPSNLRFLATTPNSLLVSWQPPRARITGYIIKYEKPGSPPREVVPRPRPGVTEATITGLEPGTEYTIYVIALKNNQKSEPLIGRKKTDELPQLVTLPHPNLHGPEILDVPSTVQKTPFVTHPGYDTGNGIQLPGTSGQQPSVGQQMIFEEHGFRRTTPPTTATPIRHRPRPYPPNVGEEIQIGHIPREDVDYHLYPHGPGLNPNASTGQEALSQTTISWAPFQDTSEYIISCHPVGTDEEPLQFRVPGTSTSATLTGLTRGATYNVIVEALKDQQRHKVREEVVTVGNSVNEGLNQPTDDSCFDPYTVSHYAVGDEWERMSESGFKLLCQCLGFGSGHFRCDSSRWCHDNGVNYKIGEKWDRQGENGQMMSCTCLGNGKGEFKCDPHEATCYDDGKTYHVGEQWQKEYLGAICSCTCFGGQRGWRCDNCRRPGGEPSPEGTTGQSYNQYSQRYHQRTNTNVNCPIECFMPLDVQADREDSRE
Method: (§1) Wells of a microtiter plate were incubated for 3 hours at 25° C. with […] gelatin in Dulbecco's PBS. The wells were emptied and incubated with Dulbecco's PBS containing 1% BSA for 30 minutes. The wells were emptied and incubated with 0.5 μg/ml ^125 I-fibronectin in the presence of peptide GlyGlyTrpSerHisTrp (SEQ ID NO: 1) (.circle-solid.); GlyGlyTrpSerLysTrp (SEQ ID NO: 9) (.tangle-solidup.); GlyGlyTyrSerHisTrp (SEQ ID NO: 10) (.box-solid.); or GlyGlyTrpSerHisTyr (SEQ ID NO: 11) (.tangle-soliddn.) for 2 hours at 25° C. The wells were washed 4 times with PBS, cut from the plate and the bound radioactivity was counted.
A ligand binding assay as described in Example 5 was performed except that microtiter plates were coated with immobilized native type I collagen in place of gelatin.

fibronectin [2] = biological target: T1, fibronectin; test: Direct binding of 125I-fibronectin to immobilized peptides
Method: Fibronectin was isolated from platelet-depleted plasma as described (Ariyama, et al. 1985, J. Biol. Chem. 260:4492-4500) and iodinated using Iodogen (Pierce Chemical Co., Rockford, Ill.) as described (Roberts, et al. 1987, J. Cell. Biol. 104:131-139).
Direct binding of the fibronectin to immobilized peptides was carried out by first absorbing the peptides on polyvinyl chloride microtiter wells for 3 hours at 25° C. at the indicated concentrations. Unbound peptides were removed by washing and wells were incubated for 30 minutes in tris-BSA (50 mM tris-HCl, pH7-8, 110 mm NaCl, 1% BSA) (Sigma fatty acid and globulin-free, 0.1% NaN3). The wells were washed and incubated with […] of 0.5 μg/ml ^125 I-fibronectin for 2 hours at 25° C. The wells were washed five times with Dulbecco's phosphate buffered saline and cut from the plate and bound radioactivity was counted.
The peptides listed in Table 1 were synthesized as described above and absorbed to microtiter wells. […] This peptide sequence is located in the second type I repeat of the human-ThbsI gene.

fibronectin [3] = biological target: T1, fibronectin; test: Inhibition of 125I-fibronectin binding to immobilized peptide GlyGlyTrpSerHisTrp; conditions: wells coated with 50 μg/ml peptide; 0.5 μg/ml 125I-fibronectin
Method: Microtiter plate wells were coated with 50 μg/ml of peptide GlyGlyTrpSerHisTrp (SEQ ID NO: 1) as in Example 1. Binding of ^125 I-fibronectin (0.5 μg/ml) to bound peptide was determined in the presence of increasing amounts of the peptides: FIG. 2A: the peptides are GlyGlyTrpSerHisTrp (SEQ ID NO: 1) (.circle-solid.); GlyGlyTrpSerLysTrp (SEQ ID NO: 9) (.tangle-solidup.); GlyGlyTyrSerHisTrp (SEQ ID NO: 10) (.box-solid.) and GlyGlyTrpSerHisTyr (SEQ ID NO: 11) (.tangle-soliddn.); FIG. 2B: GlyGlyTrpSerHisTrp (SEQ ID NO: 1) (-); GlyGlyTrpThrHisTrp (SEQ ID NO: 12) (.tangle-solidup.); GlyGlyTrpAlaHisTrp (SEQ ID NO: 13) (.box-solid.); GlyTrpSerHisTrp (SEQ ID NO: 14) (+); AlaAlaTrpSerHisTrp (SEQ ID NO: 21) (.tangle-soliddn.); and AspGlyTrpSerHisTrp (SEQ ID NO: 22) (.quadrature.).
Binding of ^125 1-fibronectin (0.5 μg/ml) to microtiter plate wells coated with 50 μg/ml of peptide GlyGlyTrpSerHisTrp (SEQ ID NO: 1) was determined in the presence of synthetic peptide GlyGlyTrpSerHisTrp (SEQ ID NO: 1), fibronectin or thrombospondin.
Microtiter plates were coated with 50 μg/ml of synthetic peptide GlyGlyTrpSerHisTrp (SEQ ID NO: 1) as described in Example 1. Binding of 125I-fibronectin (0.5 μg/ml) to the bound peptide was determined in the presence of proteolytic fragments of fibronectin, which were obtained from Telios Pharmaceuticals, Inc. San Diego, Calif. The proteolytic fragments included intact fibronectin; 30 kDa gelatin-binding domain; 33 kDa recombinant cell binding domain; 28 kDa recombinant cell binding domain and transferrin.

fibronectin [4] = biological target: T1, fibronectin; test: Inhibition of 125I-fibronectin binding to gelatin; conditions: 0.5 μg/ml 125I-fibronectin, 2 hours at 25° C.
Method: as §1

Molecule | inhibition of fibronectin binding to type I collagen (in words) (fibronectin [1]) | inhibition of fibronectin binding to immobilized peptide GlyGlyTrpSerHisTrp (in words) (fibronectin [3]) | other results
AAWSHW [AlaAlaTrpSerHisTrp] | inactive |  | 
DGWSHW [AspGlyTrpSerHisTrp] | inactive |  | 
DGWSPW [Peptide 317, DGWSPW] |  |  | binding of fibronectin to peptide (in words) (fibronectin [2]): inactive
GGWGPW [Peptide 318, GGWGPW] |  |  | binding of fibronectin to peptide (in words) (fibronectin [2]): inactive
GGWSHW [Peptide 300, GGWSHW] |  |  | IC50 (fibronectin [3]): 27 µM; IC50 (fibronectin [1]): 40 µM
GGWSHY [GlyGlyTrpSerHisTyr] | inactive | inactive | inhibition of fibronectin binding to gelatin (in words) (fibronectin [4]): inactive
GGWSKW [GlyGlyTrpSerLysTrp] | inactive | inactive | inhibition of fibronectin binding to gelatin (in words) (fibronectin [4]): inactive
GGWTHW [GlyGlyTrpThrHisTrp] | inactive |  | 
GGYSHW [GlyGlyTyrSerHisTrp] | inactive | inactive | inhibition of fibronectin binding to gelatin (in words) (fibronectin [4]): inactive
WSHWSP [Peptide 292, WSHWSP] | inactive |  | 
fetuin: control protein [reference compound] |  |  | IC50 for competition of 125I-fibronectin binding to peptide GlyGlyTrpSerHisTrp (fibronectin [3]): > 200 µg/mL
fibronectin |  | competed | 
thrombospondin: Human platelet thrombospondin, purified |  | competed | 
transferrin [reference compound] |  |  | IC50 for competition of 125I-fibronectin binding to peptide GlyGlyTrpSerHisTrp (fibronectin [3]): > 200 µg/mL
B1 |  |  | IC50 for competition of 125I-fibronectin binding to peptide GlyGlyTrpSerHisTrp (fibronectin [3]): > 200 µg/mL
